Reference: publication PMC4865820, “Branched Peptide, B2088, Disrupts the Supramolecular Organization of Lipopolysaccharides and Sensitizes the Gram-negative Bacteria” (Scientific Reports, 2016)
Like-named read-outs stand apart in the source and are kept apart here. Positions of bridges follow the written chain, without caps; N, C: chain ends. Non-standard residues stand in square brackets, D forms with d. Residues, ends and D or L forms follow the SMILES beside them. Chains are numbered I, II in the order given. *: point of attachment. X1 = CC[C@H](C)CCCCC(=O)*; Dab = NCC[C@H](N)C(=O)O

Legend:
K. pneumoniae ATCC10031 = type: cell-based
Procedure, shortened: (§1)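 Peptides two-fold diluted in Mueller-Hinton Broth (0.0976–50 μg/ml final) against 10^5–10^6 CFU/ml inoculum, 37 °C for 24 h with OD600 monitored every 30 min. MIC = lowest concentration with no visible growth; two independent duplicates.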

P. aeruginosa 23155 = type: cell-based
Procedure, shortened: as §1

[1] = system: P. aeruginosa ATCC 9027 and P. aeruginosa DM4877/07 strains; experiment: Time-kill kinetics; type: cell-based; details: ¼ × MIC of B2088 alone, 0–24 h, MHB, 37 °C
From the text: It is likely that disruption of the supramolecular organization of LPS could enhance the intracellular accessibility of the antibiotics thus rendering the micro-organisms susceptible at sub-lethal concentration of the drugs. To confirm this, we performed time-kill kinetics at sub-lethal concentration of B2088, antibiotics and their combinations against two different P. aeruginosa strains. […] The effect was quite remarkable for the B2088-gatifloxacin combination as >5 log10 reduction in CFU/ml was apparent in less than 2 h against two different P. aeruginosa strains.
Figure 6 Antimicrobial efficacy of B2088-antibiotics combinations. Time-kill kinetics showing synergism between B2088 and other antibiotics. (a) B2088 and gatifloxacin against P. aeruginosa ATCC 9027 strains. (b) B2088 and gatifloxacin against P. aeruginosa DM4877/07 strains. (c) B2088 and tobramycin against P. aeruginosa DM4877/07 strains. (d) B2088 and chloramphenicol against P. aeruginosa DM4877/07 strains. Note that for simplicity B2088 and the antibiotics are represented by single letter codes (B – B2088, G – gatifloxacin, T – tobramycin, C – chloramphenicol).
The kinetics of bactericidal action of is assessed by using each drug alone or in combinations at their sub-inhibitory MICs. […]

P. aeruginosa ATCC 27853 [2] = experiment: microbe, parasite or virus in culture; type: cell-based
Procedure, shortened: as §1

P. aeruginosa ATCC 9027 = experiment: Outer membrane permeability assay (NPN); type: cell-based; details: no unit in table; Fig. S5 axis [Peptide], μM; 10 μM NPN, 5 mM HEPES pH 7.4, ex 355/em 405 nm; average of two titrations; read-out: PC50 (peptide concentration for half-maximal NPN intensity, OM permeability)
Procedure, shortened: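 Overnight MHB-grown cells were washed and resuspended in 5 mM HEPES pH 7.4 to OD600 0.200, then loaded with 10 μM NPN (final), with peptide titrated in after dye stabilization. Fluorescence ex 355/em 405 nm; PC50 is the peptide concentration giving half-maximal intensity, from a sigmoidal fit averaged over two titrations.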

P. aeruginosa ATCC 27853 [3] = type: cell-based; details: for Fractional inhibitory concentration of peptide/PMB, combination with Genta: first number in parenthesis; for Fractional inhibitory concentration of peptide/PMB, combination with Genta / Fractional inhibitory concentration of antibiotic, Genta combination: ATCC 27853; for Fractional inhibitory concentration of antibiotic, Genta combination: second number in parenthesis
Procedure, shortened: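 Checkerboard combinations of peptide and antibiotic, each 2-fold diluted up to 1× MIC in MHB, were tested against ~10^6 CFU/ml final inoculum. Plates were incubated 24 h at 37 °C, with growth read at OD600. FICI was the sum of the combination-to-alone MIC ratios for each agent, and the lowest FICI from duplicate experiments was reported.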

K. pneumonia 31158 = experiment: Checkerboard assay; type: cell-based, K. pneumoniae; details: for Fractional inhibitory concentration of B2088 used for FICI calculation: first number in parenthesis, in combination with the labelled antibiotic; for Fractional inhibitory concentration of antibiotic used for FICI calculation: second number in parenthesis, in combination with B2088
Description: The synergism between peptides with conventional antibiotics was evaluated using checkerboard assays. For a comparison polymyxin B (PMB) was also tested against each antibiotic. From their stock solutions, two-fold dilutions of each antibiotic and peptide to 1× MIC were prepared in MHB. 50 μl of each peptide concentration was added into the wells of a 96-well polystyrene plates (SPL Life Sciences Co. Ltd, Korea) in a horizontal orientation and the same volume of each antibiotic concentration were then added in a vertical orientation. Bacterial suspensions were prepared in MHB to yield final cell density of ~10^6 CFU/ml and 100 μl of bacterial suspension was mixed with each peptide-antibiotic combinations. This procedure was repeated for wells containing 200 μl of peptide alone and 200 μl of antibiotic alone in various concentrations. The positive and negative controls contained 200 μl of inoculum and MHB alone respectively. The plates were incubated at 37 °C for 24 hours and the optical density at 600 nm (OD600) was monitored as before. Fractional inhibitory concentration index (FICI) for all antibiotic- peptide combinations was calculated through the summation of (MIC of peptide in the combination/ MIC of peptide alone) and (MIC of antibiotics in combination/MIC of antibiotic alone). The experiments were performed in two independent duplicates and the combinations that gave the lowest FICI values was reported.

[4] = MHB, 10^5–10^6 CFU/ml, 37 °C, 24 h, two independent duplicates

Row | Compound | Minimum Inhibitory Concentration against K. pneumoniae ATCC10031 (K. pneumoniae ATCC10031; ATCC10031, 24 h) [µM] | Minimum Inhibitory Concentration against P. aeruginosa 23155 (P. aeruginosa 23155; 23155, 24 h) [µM] | Time-kill outcome [1] | Minimum Inhibitory Concentration against P. aeruginosa ATCC 27853 (P. aeruginosa ATCC 27853 [2]; ATCC 27853, 24 h) [µM] | EC50 (P. aeruginosa ATCC 9027) [µM] | Fractional inhibitory concentration of peptide/PMB, combination with Genta (P. aeruginosa ATCC 27853 [3]) | Fractional inhibitory concentration of antibiotic, Genta combination (P. aeruginosa ATCC 27853 [3]) | Fractional Inhibitory Concentration Index of B2088 with the antibiotic (K. pneumonia 31158) | Fractional inhibitory concentration of B2088 used for FICI calculation (K. pneumonia 31158) | Fractional inhibitory concentration of antibiotic used for FICI calculation (K. pneumonia 31158) | Minimum Inhibitory Concentration against K. pneumoniae ATCC10031 (K. pneumoniae ATCC10031; [4]) [µM] | Minimum Inhibitory Concentration against P. aeruginosa 23155 (P. aeruginosa 23155; [4]) [µM] | Minimum Inhibitory Concentration against P. aeruginosa ATCC 27853 (P. aeruginosa ATCC 27853 [2]; [4]) [µM] | Fractional Inhibitory Concentration Index with Genta (P. aeruginosa ATCC 27853 [3]; peptide + gentamicin, P. aeruginosa ATCC 27853)
1 | CC(C)[C@H](NC(=O)[C@H](CCCCN)NC(=O)[C@H](CCCNC(=N)N)NC(=O)CNC(=O)[C@@H](N)CCCNC(=N)N)C(=O)N[C@H](C(=O)N[C@@H](CCCNC(=N)N)C(=O)N[C@@H](CCCNC(=N)N)C(=O)NCCCC[C@H](NC(=O)[C@H](CCCNC(=N)N)NC(=O)[C@H](CCCNC(=N)N)NC(=O)[C@@H](NC(=O)[C@@H](NC(=O)[C@H](CCCCN)NC(=O)[C@H](CCCNC(=N)N)NC(=O)CNC(=O)[C@@H](N)CCCNC(=N)N)C(C)C)C(C)C)C(=O)N[C@@H](CCCCN)C(=O)O)C(C)C [B2088] (I: H-RGRKVVRRKK-OH / II: H-RGRKVVRR; amide I:9-II:C; N-terminus and C-terminus assumed) | 1.4 | 1.4 | no bacteriostatic or bactericidal activity | 2.7 | 13.2 ± 0.4 | (0.25,0.25) | (0.25,0.25) |  |  |  |  |  |  | 
2 | COc1c(N2CCNC(C)C2)c(F)cc2c(=O)c(C(=O)O)cn(C3CC3)c12 (centres unmarked) [Gatifloxacin] |  |  |  |  |  |  |  | 0.56 | 0.06 | 0.5 |  |  |  | 
3 | CC[C@H](C)CCCCC(=O)N[C@@H](CCN)C(=O)N[C@H](C(=O)N[C@@H](CCN)C(=O)N[C@H]1CCNC(=O)[C@H]([C@@H](C)O)NC(=O)[C@H](CCN)NC(=O)[C@H](CCN)NC(=O)[C@H](CC(C)C)NC(=O)[C@@H](Cc2ccccc2)NC(=O)[C@H](CCN)NC1=O)[C@@H](C)O [Polymyxin B, polymyxin B, reference compound] (X1-[Dab]T[Dab][Dab][Dab][dF]L[Dab][Dab]T; lactam 4-C (inferred); N-terminus assumed) |  |  |  |  | 5.82 ± 0.6 | (0.5,0.5) | (0.5,0.5) |  |  |  | 0.57 | 0.57 | 0.57 | 1.0
4 | NC[C@H]1O[C@H](O[C@H]2[C@H](O)[C@@H](O[C@H]3O[C@H](CO)[C@@H](O)[C@H](N)[C@H]3O)[C@H](N)C[C@@H]2N)[C@H](N)C[C@@H]1O [Tobramycin] |  |  |  |  |  |  |  | 0.25 | (0.125,0.125) | (0.125,0.125) |  |  |  | 
